Values of other authors, collected in patent US6900317B2, “Salts of the CGRP antagonist BIBN4096 and inhalable powdered medicaments containing them” (Boehringer Ingelheim Pharma GmbH & Co. KG, priority 2002, dated 2005).

Details: conventional preparations

- bioavailability by oral route: only limited bioavailability
Structure (SMILES): NCCCC[C@H](NC(=O)[C@@H](Cc1cc(Br)c(O)c(Br)c1)NC(=O)N1CCC(N2Cc3ccccc3NC2=O)CC1)C(=O)N1CCN(c2ccncc2)CC1 [BIBN4096, 1-[N^2-[3,5-dibromo-N-[[4-(3,4-dihydro-2(1H)-oxoquinazolin-3-yl)-1-piperidinyl]carbonyl]-D-tyrosyl]-L-lysyl]-4-(4-pyridinyl)-piperazine]
